In patent US6984718B2, “Fluorescence dyes and their applications for whole-cell fluorescence screening assays for caspases, peptidases, proteases and other enzymes and the use thereof” (Cytovia, Inc., priority 1998, dated 2006):
Each block holds one molecule with its values, some of them ahead of it.

Assays:
recombinant caspase-3 = biological target: T1, recombinant caspase-3 (Homo sapiens, UniProt P42574); assay: Cleavage of fluorogenic substrate by recombinant caspase-3, cell-free; format: biochemical
T1 sequence (P42574 29-175 limits assumed): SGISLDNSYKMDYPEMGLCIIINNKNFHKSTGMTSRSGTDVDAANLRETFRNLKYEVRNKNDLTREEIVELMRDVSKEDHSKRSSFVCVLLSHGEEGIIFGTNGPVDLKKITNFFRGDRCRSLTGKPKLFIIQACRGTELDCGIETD
T1 sequence (P42574 176-277 limits assumed): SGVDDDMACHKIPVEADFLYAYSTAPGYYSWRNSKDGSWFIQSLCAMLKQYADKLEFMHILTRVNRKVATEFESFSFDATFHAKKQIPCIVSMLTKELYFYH
Procedure: The cleavage of N-(Ac-DEVD)-N′-(2,3,4,5-tetrafluorobenzoyl)-R110 (SEQ ID NO:5) (Ac-DEVD-R110-TFB) (SEQ ID NO:5) by caspase-3 was tested in a cell-free assay using recombinant enzyme. 10 μM of substrate was incubated with recombinant caspase-3 for 3 hours at 37° C. Control reactions included one sample with no enzyme (Background value) and one sample incubated in the presence of the caspase inhibitor, Ac-DEVD-CHO (SEQ ID NO:5) (Non-specific value).

Jurkat T leukemia cells = assay: Whole cell assay: cleavage of caspase-3 substrate in apoptotic Jurkat cells, flow cytometry; format: cell-based, human
Procedure: Jurkat T leukemia cells were grown in RPMI 1640 media (Life Technologies, Inc.) +10% FCS (Sigma Chemical Company) in a 5% CO2-95% humidity incubator at 37° C., and maintained at a cell density between 4 and 8×10^5 cells/ml. Cells were harvested at 200×g and resuspended at 1×10^6 cells/ml into RPMI 1640 media containing 10% FCS and 1 ml each were dispensed in 2-wells of a 6-well plate. The apoptosis inducer staurosporine was added at 0.5 μg/ml concentration and the plate was incubated for 2 hrs at 37° C. in a 5% CO2-95% humidity incubator. Cells were pelleted and incubated with 50 μM of substrate Ac-DEVD-R110-TFB (SEQ ID NO:5) for 2 hrs at 37° C. in serum-free RPMI medium. 500 μl PBS was added and samples were analyzed by flow cytometry. All flow cytometry analyses were performed on a FACScalibur (Becton Dickinson) using CellQuest analysis software.
The apoptosis inducer anti-Fas antibody (CH-11; MBL) was added at 200 ng/ml concentration and the plate was incubated for 2hrs at 37° C. in a 5% CO2-95% humidity incubator. Cells were pelleted and incubated with 50 μM of substrate Ac-DEVD-R110-TFB (SEQ ID NO:5) for 2 hrs at 37° C. in serum-free RPMI medium. 500 μl PBS was added and samples were analyzed by flow cytometry.
A pan-caspase inhibitor cbz-Val-Asp-fink(see W099/18781) was added to one of the wells. The apoptosis inducer staurosporine was added with and without the caspase inhibitor at 0.5 μg/ml concentration and the plate was incubated for 2 hrs at 37° C. in a 5% CO2-95% humidity incubator. Cells were pelleted and incubated with 50 μM of substrate Ac-DEVD-R110-TFB (SEQ ID NO:5) for 2hr at 37° C. in serum-free RPMI medium. 500 μl PBS was added and samples were analyzed by flow cytometry.

HL-60 cells = assay: Staining of whole, live HL-60 cells with aminopeptidase substrate; format: cell-based; settings: 10 μM, 2 hours at 37° C.
Procedure: HL-60 cells (about 2×10^6) were incubated with 10 μM of N-Gly-R110-PFB for 2 hours at 37° C. in a CO2 incubator. Parallel samples were similarly incubated with the amino terminal-blocked compound, N-Cbz-Gly-R110. At the end of the incubation, the cells were harvested by centrifugation and resuspended in 50 μL of fresh medium without substrate. Aliquots of each cell suspension were placed in microslides and viewed on a Nikon inverted microscope with epifluorescent illumination.

aminopeptidases = assay: Cleavage of substrate by HL-60 cell lysate (aminopeptidases); format: biochemical; settings: 37° C.; for fluorescent signal after incubation with cell lysate: HL-60 cell lysate
Procedure: N-Gly-R110-PFB was incubated with a lysate made from HL-60 cells, and the amount of fluorescence was measured at various times after incubation at 37° C. Parallel samples were run using the control substrate, N-Cbz-Gly-R110-PFB.

[1] = Fluorescence standard curve of dye under cell-free conditions (fluorescent microplate reader); format: physicochemical
Procedure: A standard curve consisting of 7 concentrations of N-pentafluorobenzoyl-Rhodamine 110 (0.5 to 20 μM) in a volume of 100 μL was prepared. The fluorescence of each concentration was measured (in triplicate) using a BioTek fluorescent microplate reader, and the signal was plotted as a function of dye concentration. The N-pentafluorobenzoyl-Rhodamine 110 curve was compared to a standard curve of R110 fluorescence prepared in the same way.

HL-60 lysates = assay: Cleavage of Z-DEVD-R110-PFB by HL-60 lysates; format: biochemical

increase in fluorescence over background and non-specific values (recombinant caspase-3; 10 μM substrate, recombinant caspase-3, 3 hours at 37° C.): roughly 50 fold
Structure (SMILES): CC(=O)N[C@@H](CC(=O)O)C(=O)N[C@@H](CCC(=O)O)C(=O)N[C@H](C(=O)N[C@@H](CC(=O)O)C(=O)Nc1ccc2c(c1)Oc1cc(NC(=O)c3cc(F)c(F)c(F)c3F)ccc1C21OC(=O)c2ccccc21)C(C)C (stereo partly drawn) [Ac-DEVD-R110-TFB, N-(Ac-Asp-Glu-Val-Asp)-N′-(2,3,4,5-tetrafluorobenzoyl)-Rhodamine 110]
cleavage of substrate under whole cell assay conditions, anti-Fas antibody induced apoptosis (Jurkat T leukemia cells; anti-Fas antibody 200 ng/ml 2 hrs, then 50 μM substrate 2 hrs at 37° C.): cleavage
cleavage of substrate under whole cell assay conditions, staurosporine induced apoptosis (Jurkat T leukemia cells; staurosporine 0.5 μg/ml 2 hrs, then 50 μM substrate 2 hrs at 37° C.): cleavage

Structure (SMILES): O=C(CNC(=O)OCc1ccccc1)Nc1ccc2c(c1)Oc1cc(NC(=O)c3c(F)c(F)c(F)c(F)c3F)ccc1C21OC(=O)c2ccccc21 (stereo not drawn) [N-Cbz-Gly-R110-PFB, N-(Z-Gly)-N′-pentafluorobenzoyl-Rhodamine 110]
fluorescence of whole cells incubated with substrate (HL-60 cells): did not fluoresce above background levels
fluorescent signal after incubation with cell lysate (aminopeptidases): did not give a signal
fluorescent signal after incubation with buffer only (no lysate) (aminopeptidases): did not give a signal

Structure (SMILES): Br.NCC(=O)Nc1ccc2c(c1)Oc1cc(NC(=O)c3c(F)c(F)c(F)c(F)c3F)ccc1C21OC(=O)c2ccccc21 (stereo not drawn) [N-Gly-R110-PFB, N-Gly-N′-pentafluorobenzoyl-Rhodamine 110 HBr]
fluorescence of whole cells incubated with substrate (HL-60 cells): strong, homogeneously distributed, yellowish-green fluorescence
fluorescent signal after incubation with cell lysate (aminopeptidases): strong fluorescent signal
fluorescent signal after incubation with buffer only (no lysate) (aminopeptidases): very weak fluorescent signal

Structure (SMILES): Nc1ccc2c(c1)Oc1cc(NC(=O)c3c(F)c(F)c(F)c(F)c3F)ccc1C21OC(=O)c2ccccc21 (stereo not drawn) [N-pentafluorobenzoyl-Rhodamine 110, N-Pentafluorobenzoyl-Rhodamine 110]
fluorescence compared to Rhodamine 110 ([1]; cell-free conditions): weaker fluorescent dye compared to Rhodamine 110

higher fluorescence of R110 than N-pentafluorobenzoyl-Rhodamine 110 ([1]; each concentration tested, 0.5 to 20 μM, cell-free): 20 to 50 fold
Structure (SMILES): Cl.N=c1ccc2c(-c3ccccc3C(=O)O)c3ccc(N)cc3oc-2c1 [Rhodamine 110, reference compound]

increase in fluorescence over the uncleaved substrate (recombinant caspase-3; recombinant caspase-3): greater than 10 fold
Structure (SMILES): CC(C)[C@H](NC(=O)[C@H](CCC(=O)O)NC(=O)[C@H](CC(=O)O)NC(=O)OCc1ccccc1)C(=O)N[C@@H](CC(=O)O)C(=O)Nc1ccc2c(c1)Oc1cc(NC(=O)c3c(F)c(F)c(F)c(F)c3F)ccc1C21OC(=O)c2ccccc21 (stereo partly drawn) [Z-DEVD-R110-PFB, N-(Z-Asp-Glu-Val-Asp)-N′-pentafluorobenzoyl-Rhodamine 110]
cleavage by lysate from apoptotic HL-60 cells (HL-60 lysates): readily cleaved

Structure (SMILES): CC(C)[C@H](NC(=O)OCc1ccccc1)C(=O)NC(CC(=O)O)C(=O)CF (stereo partly drawn) [cbz-Val-Asp-fink]
inhibition of staurosporine induced cleavage of Ac-DEVD-R110-TFB in whole cells (Jurkat T leukemia cells; staurosporine 0.5 μg/ml, 2 hrs): can be inhibited by the pan-caspase inhibitor

Structure (SMILES): CN[C@@H]1C[C@H]2O[C@@](C)([C@@H]1OC)n1c3ccccc3c3c4c(c5c6ccccc6n2c5c31)C(=O)NC4 [staurosporine]
induction of apoptosis read out as cleavage of Ac-DEVD-R110-TFB (Jurkat T leukemia cells; inducer at 0.5 μg/ml, 2 hrs): leads to cleavage of the caspase-3 substrate
